According to patent publication US7863285B2, “Purinone derivatives as HM74A agonists” (Incyte Corporation, priority 2006, dated 2011):

Tests used:
[1] = clinical, cited from earlier work; for lowering of plasma LDL: monotherapy
human HM74a [2] = biological target: T1, human HM74a (Homo sapiens, UniProt Q8TDS4); experiment: GTPγS recruitment assay; assay type: biochemical; parameters: expressed in transfected cells; host or cells: HEK293 cells, transient transfection, membrane preparation; details: membranes of HEK293 cells transfected with human HM74a and Gα0; 35S GTPγS
Experimental: Membranes were prepared from HEK293 cells transiently transfected with human HM74a and Gα0 protein. Assays were performed in 384-well format in a volume of 50 μL per assay point. Serial dilutions of compounds were prepared in the assay buffer (20 mM HEPES pH. 7.4, 100 mM NaCl, 10 mM MgCl2, 10 mg/L saponin and 10 μM GDP) and mixed with membranes (2 μg per assay point) and ^35S GTPγS (Amersham, 0.3 nM) in the assay buffer. The mixtures were incubated at room temperature for 30 min and wheat germ agglutinin SPA beads (Amersham) (0.2 mg per assay point) in the assay buffer were added. After 30 min incubation with agitation, plates were centrifuged at 1500 g for 5 min and bound ^35S GTPγS was determined by counting on a TopCount scintillation counter.
Target sequence in this assay (Q8TDS4 whole entry): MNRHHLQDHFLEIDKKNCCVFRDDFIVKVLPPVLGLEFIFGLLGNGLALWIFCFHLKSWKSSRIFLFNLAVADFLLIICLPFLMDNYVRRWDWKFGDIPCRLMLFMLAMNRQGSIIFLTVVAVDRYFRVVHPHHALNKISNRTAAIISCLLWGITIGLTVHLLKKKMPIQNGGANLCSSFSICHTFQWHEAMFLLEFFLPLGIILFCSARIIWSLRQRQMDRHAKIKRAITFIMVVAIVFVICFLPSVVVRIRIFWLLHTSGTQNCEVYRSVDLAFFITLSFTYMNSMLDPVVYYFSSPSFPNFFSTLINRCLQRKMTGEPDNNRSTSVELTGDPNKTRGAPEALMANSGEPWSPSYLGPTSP
Target sequence in this assay (P09471 2-354 partner limits assumed): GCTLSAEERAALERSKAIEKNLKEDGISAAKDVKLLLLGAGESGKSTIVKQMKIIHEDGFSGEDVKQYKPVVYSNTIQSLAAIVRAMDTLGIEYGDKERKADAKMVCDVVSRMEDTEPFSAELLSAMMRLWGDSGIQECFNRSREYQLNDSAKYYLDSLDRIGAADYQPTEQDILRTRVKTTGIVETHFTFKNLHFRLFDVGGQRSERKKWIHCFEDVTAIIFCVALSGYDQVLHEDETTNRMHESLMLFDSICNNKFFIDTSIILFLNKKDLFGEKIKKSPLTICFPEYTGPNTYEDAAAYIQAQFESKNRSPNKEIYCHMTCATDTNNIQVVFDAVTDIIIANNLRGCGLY
Target sequence in this assay (P62873 2-340 partner limits assumed): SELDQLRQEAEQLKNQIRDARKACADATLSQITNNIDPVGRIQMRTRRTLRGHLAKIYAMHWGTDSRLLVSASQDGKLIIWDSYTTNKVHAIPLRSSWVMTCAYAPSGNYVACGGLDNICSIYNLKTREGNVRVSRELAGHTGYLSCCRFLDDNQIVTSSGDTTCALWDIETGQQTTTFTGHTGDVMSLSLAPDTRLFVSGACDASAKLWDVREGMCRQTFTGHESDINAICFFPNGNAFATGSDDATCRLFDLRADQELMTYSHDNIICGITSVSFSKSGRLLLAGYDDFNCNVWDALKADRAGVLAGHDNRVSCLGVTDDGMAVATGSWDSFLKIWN
Target sequence in this assay (P59768 2-68 partner limits assumed): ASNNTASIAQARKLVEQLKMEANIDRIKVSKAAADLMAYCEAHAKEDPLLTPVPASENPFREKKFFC

mature adipocytes = experiment: Adipocyte lipolysis assay; assay type: cell-based; details: glycerol in supernatants after overnight culture with IBMX (100 μM)
Experimental: Preadipocytes purchased from Zen Bio were plated at 8.7×10^4 cells/well in 96-well plates, differentiated for 14 days and mature adipocytes assayed during days 15 through 21. Adipocyte maturation is assessed by the presence of rounded cells with large lipid droplets in the cytoplasm. Following maturation, cells were washed and incubated overnight with IBMX (100 μM) and various concentrations of compound diluted in assay buffer containing a final DMSO concentration of 0.1%. After overnight culture, the glycerol concentration in the supernatants was determined with the Lipolysis Assay Kit purchased from Zen-Bio. Absorbance at 540 nm is directly proportional to the glycerol concentration in the sample. IC50 determinations were based on compound inhibition relative to DMSO controls. […] For example, the compound of Example 1 has an IC50 of 100 nM in this assay.

human HM74a [3] = biological target: T1, human HM74a; experiment: cAMP assay; assay type: cell-based; parameters: expressed in transfected cells; details: CHO cells stably transfected with human HM74a; 5 μM forskolin; inhibition relative to DMSO controls
Experimental: CHO cells stably transfected with human HM74a were seeded at 7,500 cells/well in a 96-well plate in HAMS F12 medium with 10% FBS. The plate was incubated overnight at 37° C. and 5% CO2. The test compounds were prepared in a stimulation buffer containing 1×HANKS, 20 mM HEPES, 5 μM forskolin, and 0.25 mM IBMX. The media from the cell plate was removed before adding 30 μL of the test compounds. After 30 minute incubation at 37° C. and 5% CO2, the cAMP level was assayed using HitHunter cAMP XS assay kit (DiscoverX, CA). IC50 determinations were based on compound inhibition relative to DMSO controls.
Target sequence in this assay (Q8TDS4 whole entry): as the sequence (Q8TDS4 whole entry) above

EC50 (human HM74a [2]) [nM] | IC50 (mature adipocytes) [nM] | IC50 (human HM74a [3]) [nM] | Compound | lowering of plasma LDL [1] [%] | decrease of plasma triglycerides [1] [%] | raising HDL levels [1]
 |  |  | O=C1[C@H](CC[C@H](O)c2ccc(F)cc2)[C@@H](c2ccc(O)cc2)N1c1ccc(F)cc1 [Ezetimibe] | 20 |  | 
 |  |  | O=C(O)c1cccnc1 [Nicotinic acid, nicotinic acid] | 16 | 38 | 20-30%
61 | 100 | 20 | CCCCCn1c(=O)n2cnnc2c2[nH]c(C(F)(F)F)nc21 [Example 1, 6-pentyl-8-(trifluoromethyl)-6,9-dihydro-5H-[1,2,4]triazolo[3,4-i]purin-5-one] |  |  | 
